According to patent US9457041B2, “Controlled release nanoparticles and methods of use” (NDSU Research Foundation, priority 2014, dated 2016):

Tests used:
MIAPaCa-2 cells = test: Alamar Blue assay with a monolayer cell culture; type: cell-based; settings: Homo sapiens, MIA PaCa-2, MIAPaCa-2 monolayer, 10 μM gemcitabine or equivalent encapsulated, 72 hours
Procedure: (§1) Pancreatic-cancer cell lines PANC-1 and MIAPaCa-2 were obtained from American Type Culture Collection (Manassas, Va.). PANC-1 cells were cultured in RPMI media (without phenol red) that were supplemented with 2% antibiotics (penicillin, streptomycin) and 10% v/v fetal bovine serum. The MIAPaCa-2 cells were cultured in DMEM media that were supplemented with 2% horse serum and 2% antibiotics. All cell lines were grown at 37° C. in a humidified atmosphere containing 5% CO2.
(§2) Cytotoxicity of the encapsulated gemcitabine was measured by treating the PANC-1 and MIAPaCa-2 cells with nanovesicles. The cells were incubated (1,000 per well) in a 96-well plate after trypsinizing the flask and making a cell suspension. RPMI media (100 μL) were added to each well. Cells were allowed to grow for one doubling time. The plate was divided into three groups: control, gemcitabine treated and gemcitabine-encapsulated nanovesicles treated. Six replicates were recorded for each sample. […] The treatment was carried out for 3 days, and cell toxicity was recorded after 72 hours with the Alamar Blue assay by following the supplier's (Life Technologies) protocol. Alamar Blue solution (10 μL) was added to all the wells and incubated for 2 hours, and the absorbance was recorded at 585 nm for cytotoxicity calculation (FIG. 15).

PANC-1 cells = test: Alamar Blue assay with a monolayer cell culture; type: cell-based; settings: Homo sapiens, PANC-1 monolayer, 10 μM gemcitabine or equivalent encapsulated, 72 hours
Procedure: as §1, §2

recombinant human MMP-9 = recombinant human MMP-9 (Homo sapiens, UniProt P14780); test: CD spectroscopy of triple helicity of nanovesicle-incorporated lipopeptide; type: biochemical
Text: The lipopeptide LP [CH3(CH2)16CONH-[…](GPO)4GG-COOH] was synthesized by employing microwave assisted solid phase peptide synthesizer (Liberty, CEM Corporation, Matthews, S.C.) by following the protocol previously established in our laboratory (Pompella et al., Biochem pharm 2003, 66 (8), 1499-1503). The lipopeptide was purified by reverse phase HPLC (Shimadzu Scientific Instruments) using a diphenyl semi-preparatory column (Grace Vydac, 300 Å pore diameter silica, 5 μm particle size, 10 mm×250 mm) as the stationary phase. A linear gradient (0-70%) of acetonitrile (with 0.1% trifluoroacetic acid) in water (with 0.1% trifluoroacetic acid) was used at a flow rate of 8 mL/min over 60 min. The chromatogram was recorded at 235 nm using a UV detector. After freeze drying the eluents, the peptide was characterized employing MALDI-TOF mass spectrometry with an AB 4800 MALDI TOF/TOF mass analyzer. An observed mass of 2332.3 Da in MALDI spectra confirmed the LP (calculated mass: 2332.2 Da). The collagen mimetic triple helical structure of the lipopeptide was assessed by CD spectrometry employing a Jasco J-815 CD spectrometer with a quartz cuvette of 1 mm path length. The positive peak at 222 nm and the negative peak at 198 nm confirmed the triple helical structure of collagen mimetic peptide.20 For the CD spectroscopic studies, 32 accumulations were recorded for each spectra.

recombinant human MMP-9, sequence (P14780 94-707): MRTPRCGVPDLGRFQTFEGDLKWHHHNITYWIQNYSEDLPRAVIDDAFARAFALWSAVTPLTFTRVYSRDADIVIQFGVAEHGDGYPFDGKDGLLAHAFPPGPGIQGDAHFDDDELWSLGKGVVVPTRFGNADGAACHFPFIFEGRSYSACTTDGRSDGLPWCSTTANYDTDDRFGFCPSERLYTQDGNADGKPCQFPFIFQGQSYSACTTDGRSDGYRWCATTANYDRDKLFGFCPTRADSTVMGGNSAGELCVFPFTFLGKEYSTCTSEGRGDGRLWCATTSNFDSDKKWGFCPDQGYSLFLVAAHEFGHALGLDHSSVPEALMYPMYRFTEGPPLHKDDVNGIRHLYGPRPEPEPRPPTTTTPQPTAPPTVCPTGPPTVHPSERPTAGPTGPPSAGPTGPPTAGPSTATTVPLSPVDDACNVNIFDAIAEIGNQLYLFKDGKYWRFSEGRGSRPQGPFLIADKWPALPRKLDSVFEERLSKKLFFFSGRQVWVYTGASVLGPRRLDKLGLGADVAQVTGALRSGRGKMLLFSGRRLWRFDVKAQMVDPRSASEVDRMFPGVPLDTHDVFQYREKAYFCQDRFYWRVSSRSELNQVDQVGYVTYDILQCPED

Compound	viability at 10 µM (MIAPaCa-2 cells)	viability at 10 µM (PANC-1 cells)	triple helicity of LP (CD) (recombinant human MMP-9; 2 μM recombinant human MMP-9, 60 minutes)	triple helicity of nanovesicle-incorporated LP (CD) (recombinant human MMP-9; GSH (50 μM), 1 hour)
Nc1ccn([C@@H]2O[C@H](CO)[C@@H](O)C2(F)F)c(=O)n1 [gemcitabine]	45 to 50%	30 to 35%	–	–
CH3(CH2)16CONH-GPQGIAGQR(GPO)4GG-COOH [LP]	–	–	considerably reduced	unchanged
